Molecules are shown by their SMILES. Values after ≈ are worked out from the molar mass of the structure shown. Like-named read-outs stand apart in the source and are kept apart here.

11 compounds from US20250313553A1, “ANNULATED 2-AMINO-3-CYANO THIOPHENES AND DERIVATIVES FOR THE TREATMENT OF CANCER” (Boehringer Ingelheim Int'l GmbH Corp., priority 2021, published 2025) can be followed below.

Data set [1] relates to ERK phosphorylation in NCI-H358 (KRAS G12C). Briefly: ERK phosphorylation assay (assay 1, NCI-H358). In kind it is cell-based. As to conditions: Homo sapiens; NCI-H358, assay 1, 1 h incubation; read-out: IC50 H358 pERK. On the procedure: Low IC50 values in this assay setting are indicative of high potency of the compounds according to the invention. […]
The cells are incubated for 1 h at room temperature and then incubated overnight in an incubator at 37° C. and 5% CO2 in a humidified atmosphere. 60 nL compound solution (10 mM DMSO stock solution) is then added using a Labcyte Echo 550 device. […] After 20 min of incubation at room temperature with shaking, 6 μL of each lysate sample is transferred to a 384-well Proxiplate and analyzed for pERK (Thr202/Tyr204) with the AlphaLISA SureFire Ultra pERK1/2 (Thr202/Tyr204) Assay Kit. 3 μL Acceptor Mix and 3 μL Donor Mix are added under subdued light and incubated for 2 h at room temperature in the dark, before the signal is measured on a PerkinElmer Envision HTS Multilabel Reader. The raw data are imported into and analyzed with the Boehringer Ingelheim proprietary software MegaLab (curve fitting based on the program PRISM, GraphPad Inc.).

Another data set concerns the target T1, KRAS (G12D) and SOS1 (Homo sapiens, UniProt P01116, G12D).
T1 construct: KRAS (G12D) 1-169, N-terminal 6His-tag; 6His (N); purchased Xtal BioStructures, Inc. (KRAS G12D); Viva Biotech Ltd (SOS1)
Kind of data set: KRAS::SOS1 AlphaScreen binding assay, KRAS G12D. On the procedure: Low IC50 values in this assay setting are indicative of strong inhibition of protein-protein interaction between SOS1 and KRAS:
These assays measure the inhibitory effect of compounds on KRAS mutant protein-protein interactions using the Alpha Screen technology by Perkin Elmer.
For the chosen highest assay concentration of 100 μM, 150 nL of compound solution are transferred from a 10 mM DMSO compound stock solution. A series of eleven fivefold dilutions per compound are transferred to the assay plate, compound dilutions are tested in duplicates. DMSO are added as backfill to a total volume of 150 nL.
The assays run on a fully automated robotic system in a darkened room below 100 Lux. To 150 nl of compound dilution 10 μl of a mix including KRAS mutant protein, SOS1 (final assay concentrations see above) and GDP nucleotide (Sigma G7127; final assay concentration 10 μM) in assay buffer (1×PBS, 0.1% BSA, 0.05% Tween 20) are added into columns 1-24. After 30 minutes incubation time 5 μl of Alpha Screen bead mix in assay buffer are added into columns 1-23.
Plates are kept at room temperature in a darkened incubator. After an additional 60 minutes incubation time the signal is measured in a PerkinElmer Envision HTS Multilabel Reader using the AlphaScreen specs from PerkinElmer.
IC50 values are calculated and analyzed with Boehringer Ingelheim's MEGALAB IC50 application using a 4 parametric logistic model.

In the next data set the test system is SAS cells. Kind of data set: SAS CTG proliferation assay (120 h). As to conditions: HNSCC, wt amplified. Format: cell-based. Here is the method: SAS cells (JCRB0260) are dispensed into 384-well plates, flat and clear bottom (Greiner, PNr. 781091) at a density of 300 cells per well in 60 μL DMEM:F12 (Gibco 31330-038)+10% Fetal Calf Serum (HyClone, PNr.: SH30084.03) and incubated at 37° C. in a CO2 incubator overnight. The next day, compounds (10 mM stock in DMSO) are added with the ECHO acoustic liquid handler system (Beckman Coulter), including DMSO controls. Plates are incubated for 120 h, and cell viability is measured using CellTiter-Glo luminescent cell viability reagent (Promega product code G7570). Viability (stated as percent of control) is defined as relative luminescence units RLU of each well divided by the RLU of cells in DMSO controls. IC50 values are determined from viability measurements by non-linear regression using a four-parameter model.

The target of the next data set is KRAS G12V Ba/F3 cells (Homo sapiens, UniProt P01116, G12V, cells depend on it). Kind of data set: Ba/F3 proliferation assay, KRAS G12V. Format: cell-based. As to conditions: 72 h, AlamarBlue, read-out: KRAS G12V Ba/F3 IC50. Here is the method: To generate KRASG12-dependent Ba/F3 models, Ba/F3 cells are transduced with retroviruses containing vectors that harbor KRASG12 isoforms. Platinum-E cells (Cell Biolabs) are used for retrovirus packaging. Retrovirus is added to Ba/F3 cells. To ensure infection, 4 μg/mL polybrene is added and cells are spinfected. […] Cells with an infection efficiency of 10% to 20% are further cultivated and puromycin selection with 1 μg/mL is initiated. As a control, parental Ba/F3 cells are used to show selection status. Selection is considered successful when parental Ba/F3 cells cultures died. To evaluate the transforming potential of KRASG12 mutations, the growth medium is no longer supplemented with IL-3. Ba/F3 cells harboring the empty vector are used as a control. Approximately ten days before conducting the experiments, puromycin is left out.
KRAS G12V Ba/F3 cells, sequence (P01116 whole entry G12V, canonical isoform): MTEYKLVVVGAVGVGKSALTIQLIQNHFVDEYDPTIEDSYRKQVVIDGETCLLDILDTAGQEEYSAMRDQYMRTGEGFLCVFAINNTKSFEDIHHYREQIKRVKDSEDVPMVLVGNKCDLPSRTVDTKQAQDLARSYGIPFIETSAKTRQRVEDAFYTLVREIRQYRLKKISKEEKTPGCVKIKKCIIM
All treatments are performed in technical duplicates. […] AlamarBlue™ (ThermoFisher), a viability stain, is added and fluorescence measured in the PerkinElmer Envision HTS Multilabel Reader. The raw data are imported into and analyzed with the Boehringer Ingelheim proprietary software MegaLab (curve fitting based on the program PRISM, GraphPad Inc.).
In general terms: Resazurin is reduced to fluorescent resorufin, in cell work by metabolically active cells.

The target in the next data set is T2, CYP3A4 (Homo sapiens, UniProt P08684).
T2 construct: assayed in human liver microsomes (0.02 mg/mL) with midazolam (15 μM) as a substrate; from tissue; host or cells: human liver microsomes
T2 sequence (P08684 whole entry): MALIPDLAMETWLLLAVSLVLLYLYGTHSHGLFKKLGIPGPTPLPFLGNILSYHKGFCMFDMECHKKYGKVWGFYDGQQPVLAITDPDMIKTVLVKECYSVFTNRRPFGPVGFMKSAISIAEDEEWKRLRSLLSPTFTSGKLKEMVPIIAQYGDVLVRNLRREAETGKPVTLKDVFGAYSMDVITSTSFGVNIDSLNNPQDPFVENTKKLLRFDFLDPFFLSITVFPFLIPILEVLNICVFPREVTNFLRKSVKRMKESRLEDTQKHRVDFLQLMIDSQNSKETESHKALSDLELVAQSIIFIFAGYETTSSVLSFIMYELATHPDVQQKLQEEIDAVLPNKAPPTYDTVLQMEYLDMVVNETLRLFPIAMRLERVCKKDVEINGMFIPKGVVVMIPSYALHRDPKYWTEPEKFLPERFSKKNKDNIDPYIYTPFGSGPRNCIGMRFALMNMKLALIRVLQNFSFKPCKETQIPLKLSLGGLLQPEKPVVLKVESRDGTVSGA
Kind of data set: Mechanism based inhibition of CYP3A4 assay (MBI 3A4). In kind it is in vitro ADME. As to conditions: 25 uM, hydroxy-midazolam formation after 30 min preincubation relative to 0 min. On the procedure:
The time dependent inhibition towards CYP3A4 is assayed in human liver microsomes (0.02 mg/mL) with midazolam (15 μM) as a substrate. The test compounds and water control (wells w/o test compound) are preincubated in presence of NADPH (1 mM) with human liver microsomes (0.2 mg/mL) at a concentration of 25 uM for 0 min and 30 min. After preincubation, the incubate is diluted 1:10 and the substrate midazolam is added for the main incubation (15 min). The main incubation is quenched with acetonitrile and the formation of hydroxy-midazolam is quantified via LC/MS-MS. The formation of hydroxy-midazolam from the 30 min preincubation relative to the formation from the 0 min preincubation is used as a readout. Values of less than 100% mean that the substrate midazolam is metabolized to a lower extent upon 30 min preincubation compared to 0 min preincubation. In general low effects upon 30 min preincubation are desired (corresponding to values close to 100%/not different to the values determined with water control).

Data set [2] is described as follows: Solubility measurement (DMSO solution precipitation method). In kind it is physicochemical. As to conditions: aqueous buffer, kinetic from dmso stock. Here is the method: The DMSO solution is diluted with an aqueous medium (McIlvaine buffer with pH=4.5 or 6.8) to a final concentration of 250 μM. After 24 h of shaking at ambient temperature a potentially formed precipitate is removed by filtration. The concentration of the test compound in the filtrate is determined by LC-UV methods by calibrating the signal to the signal of a reference solution with complete dissolution of the test compound in acetonitrile/water (1:1) with known concentration.

The mark [3] stands for this setting: McIlvaine buffer pH 4.5, 24 h, read-out: solubility pH 4.5.
[4] abbreviates: McIlvaine buffer pH 6.8, 24 h, read-out: solubility pH 6.8.

T1 sequence (P01116 1-169 isoform P01116-2 G12D): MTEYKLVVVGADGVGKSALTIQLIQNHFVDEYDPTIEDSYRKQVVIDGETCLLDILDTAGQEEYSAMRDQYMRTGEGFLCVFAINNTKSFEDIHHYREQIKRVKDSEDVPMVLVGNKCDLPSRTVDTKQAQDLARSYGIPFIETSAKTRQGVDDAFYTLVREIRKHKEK

The term IC50 denotes the concentration that inhibits the measured activity by half. The solubility is the dissolved amount per volume that the medium holds. Take `C[C@H]1CN(C)CCN1c1cccc(-c2noc([C@@]3(C)CCCc4sc(N)c(C#N)c43)n2)n1` [Example V-1]: the IC50 in data set [1] was 0.252 µM; at KRAS (G12D) and SOS1 it was 0.026 µM; in the data set with SAS cells it was 8.02 µM. Besides, the GI50 on KRAS G12V Ba/F3 cells turned out to be 1.44 µM. Moreover, the “MBI 3A4” value on CYP3A4 worked out at 65%. Moreover, the results for the solubility at 24 h in data set [2] (setting [3]) and in data set [2] (setting [4]) were over 0.11 mg/mL and 0.076 mg/mL (≈ 169 µM), respectively.
As to `COCCCN1CCCN(c2nccc(-c3noc([C@@]4(C)CCCc5sc(N)c(C#N)c54)n3)n2)[C@@H](C)C1` [Example V-2], the IC50 in data set [1] worked out at 0.023 µM; on KRAS (G12D) and SOS1, 0.003 µM. The GI50 on KRAS G12V Ba/F3 cells amounted to 0.917 µM. Moreover, the solubility at 24 h in data set [2] (setting [3]) was over 0.13 mg/mL; in data set [2] (setting [4]), 0.1 mg/mL (≈ 191 µM).
With `C[C@H]1CNCCN1c1nccc(-c2noc([C@@]3(C)CCCc4sc(N)c(C#N)c43)n2)n1` [Example V-4], the IC50 in data set [1] is 0.13 µM; at KRAS (G12D) and SOS1 it was 0.015 µM. Also, the GI50 on KRAS G12V Ba/F3 cells was 1.08 µM. The “MBI 3A4” value at CYP3A4 was 75%. The solubility at 24 h in data set [2] (setting [3]) is over 0.097 mg/mL; in data set [2] (setting [4]), over 0.091 mg/mL.
Regarding `C[C@H]1CN(C)CCCN1c1nccc(-c2noc([C@@]3(C)CCCc4sc(N)c(C#N)c43)n2)n1` [Example V-5], the IC50 was 0.038 µM in data set [1]; 0.007 µM at KRAS (G12D) and SOS1. The GI50 on KRAS G12V Ba/F3 cells was 0.64 µM. Moreover, the “MBI 3A4” value on CYP3A4 was found to be 55%. Moreover, the solubility at 24 h in data set [2] (setting [3]) was over 0.1 mg/mL; in data set [2] (setting [4]), 0.092 mg/mL (≈ 198 µM).
For `C[C@H]1CNCCCN1c1nccc(-c2noc([C@@]3(C)CCCc4sc(N)c(C#N)c43)n2)n1` [Example V-6], the IC50 came out at 0.075 µM in data set [1]; 0.012 µM at KRAS (G12D) and SOS1. Also, the GI50 at KRAS G12V Ba/F3 cells is 1.07 µM. For the same compound, the solubility at 24 h in data set [2] (setting [3]) amounted to 0.088 mg/mL (≈ 195 µM); in data set [2] (setting [4]) it was 0.085 mg/mL (≈ 189 µM).
On to `C[C@H]1CN(C)CCN1c1nccc(-c2noc([C@@]3(C)CCCc4sc(N)c(C#N)c43)n2)n1` [Example V-7], for which the IC50 in data set [1] came to 0.137 µM; at KRAS (G12D) and SOS1, 0.016 µM. Further, on KRAS G12V Ba/F3 cells, the GI50 came out at 1.68 µM. The “MBI 3A4” value on CYP3A4 came out at 57%.
Take `C[C@H](Oc1cccc(-c2noc([C@@]3(C)CCCc4sc(N)c(C#N)c43)n2)n1)[C@@H]1CCCN1C` [Example V-8]: the IC50 was 0.055 µM in data set [1]; 0.007 µM at KRAS (G12D) and SOS1; 3.1 µM with SAS cells. The GI50 on KRAS G12V Ba/F3 cells came out at 0.443 µM. In addition, the solubility at 24 h in data set [2] (setting [3]) was over 0.096 mg/mL; in data set [2] (setting [4]) it was over 0.095 mg/mL.
Take `CC(C)N1CCCN(c2nccc(-c3noc([C@@]4(C)CCCc5sc(N)c(C#N)c54)n3)n2)[C@@H](C)C1` [Example V-9]: the IC50 in data set [1] was found to be 0.012 µM; at KRAS (G12D) and SOS1, 0.005 µM. For the same compound, the GI50 at KRAS G12V Ba/F3 cells worked out at 0.076 µM. For the same compound, the “MBI 3A4” value at CYP3A4 turned out to be 49%. Further, the solubility at 24 h in data set [2] (setting [3]) and in data set [2] (setting [4]) was over 0.11 mg/mL each time.
For the compound `C[C@H](Oc1nccc(-c2noc([C@@]3(C)CCCc4sc(N)c(C#N)c43)n2)n1)[C@@H]1CCCN1C` [Example V-10], the IC50 in data set [1] came to 0.012 µM; on KRAS (G12D) and SOS1 it was 0.005 µM. Besides, the GI50 at KRAS G12V Ba/F3 cells is 0.361 µM. Besides, the “MBI 3A4” value on CYP3A4 is 65%. Also, the solubility at 24 h in data set [2] (setting [3]) and in data set [2] (setting [4]) was over 0.11 mg/mL in each case.
Take `C[C@H](Oc1ccnc(-c2noc([C@@]3(C)CCCc4sc(N)c(C#N)c43)n2)n1)[C@@H]1CCCN1C` [Example V-11]: the IC50 worked out at 0.007 µM in data set [1] and 3.33 µM with SAS cells. Moreover, the solubility at 24 h in data set [2] (setting [3]) and in data set [2] (setting [4]) was over 0.116 mg/mL each time.
As to `C[C@H]1CN(C)CCN1c1nccc(-c2cc([C@@]3(C)CCCc4sc(N)c(C#N)c43)on2)n1` [Example V-27], the IC50 on KRAS (G12D) and SOS1 amounted to 0.008 µM. The GI50 at KRAS G12V Ba/F3 cells is 1.69 µM. Besides, the “MBI 3A4” value on CYP3A4 is 71%. For the same compound, the solubility at 24 h in data set [2] (setting [3]) was over 0.093 mg/mL; in data set [2] (setting [4]), 0.018 mg/mL (≈ 40 µM).
